# Read-outs that look alike come from different tables or passages of the source.
# What was measured:
# [1] = tested on: mammalian red blood cells; conditions: 37° C., 1 hour
# Protocol: Candidate cationic peptides may be further tested for their toxicity to normal mammalian cells. An exemplary assay is a red blood cell (RBC) (erythrocyte) hemolysis assay. Briefly, in this assay, red blood cells are isolated from whole blood, typically by centrifugation, and washed free of plasma components. A 5% (v/v) suspension of erythrocytes in isotonic saline is incubated with different concentrations of peptide analogue. […] After incubation for approximately 1 hour at 37° C., the cells are centrifuged, and the absorbance of the supernatant at 540 nm is determined. A relative measure of lysis is determined by comparison to absorbance after complete lysis of erythrocytes using NH4Cl or equivalent (establishing a 100% value). A peptide with <10% lysis at 100 μg/ml is suitable. Preferably, there is <5% lysis at 100 μg/ml. Such peptides that are not lytic, or are only moderately lytic, are desirable and suitable for further screening.
# Cationic peptides are tested for toxicity towards eukaryotic cells by measuring the extent of lysis of mammalian red blood cells (RBC). Briefly, in this assay, red blood cells are separated from whole blood by centrifugation and washed free of plasma components. A 5% (v/v) washed red blood cell suspension is prepared in isotonic saline. An aliquot of peptide in formulation is then added and mixed in. After incubation at 37° C. for 1 hour with constant agitation, the solution is centrifuged and the supernatant measured for absorbance at 540 nm to detect released hemoglobin.
# A combination of cationic peptide and antibiotic agent is tested for toxicity towards eukaryotic cells by measuring the extent of lysis of mammalian red blood cells. Briefly, red blood cells are separated from whole blood by centrifugation, washed free of plasma components, and resuspended to a 5% (v/v) suspension in isotonic saline. […] Following incubation with constant agitation at 37° C. for 1 hour, the solution is centrifuged, and the absorbance of the supernatant is measured at 540 nm, which detects released hemoglobin. […]
# H. influenzae = assay: Agarose dilution assay (MIC); type: cell-based; conditions: H. influenzae strain HIN002
# P. aeruginosa = type: cell-based; conditions: for Peptide MIC values: agarose dilution
# [2] = tested on: microorganisms with acquired resistance; assay: microbe, parasite or virus in culture; type: cell-based; conditions: for Peptide MIC Alone: Piperacillin section; for FIC: peptide + Piperacillin
# S. maltophilia = type: cell-based; conditions: S. maltophilia strain SMA001
# A. calcoaceticus = type: cell-based; conditions: A. calcoaceticus strain AC001
# E. cloacae = type: cell-based; conditions: E. cloacae strain ECL007
# E. faecium = type: cell-based; conditions: for MIC: E. faecium strain EFM003
# [3] = tested on: MSSA (Smith, ATCC # 19640); assay: In vivo efficacy, MSSA infection; design: species or system S. aureus; conditions: 18 mg/kg ip, formulation D, 60 min post-infection; end of eight day observation
# S. pyogenes = assay: Agarose dilution assay (MIC); type: cell-based; conditions: S. pyogenes strain SPY002
# K. pneumoniae = type: cell-based
# [4] = tested on: inherently resistant microorganisms; assay: microbe, parasite or virus in culture; type: cell-based; conditions: S. aureus MRSA
# E. faecalis = type: cell-based
# S. pneumoniae = assay: Agarose dilution assay (MIC); type: cell-based; conditions: for Peptide MIC values: agarose dilution
# P. mirabilis = assay: Agarose dilution assay (MIC); type: cell-based; conditions: P. mirabilis strain PM001
# S. aureus = type: cell-based; conditions: for Peptide MIC values: agarose dilution
# bacterial isolates = assay: microbe, parasite or virus in culture; type: cell-based
# E. coli = type: cell-based; conditions: for Peptide MIC values: agarose dilution
# MCF-7, breast carcinoma = assay: Cell death by Cytotox (Promega) lactate dehydrogenase release; type: cell-based; conditions: LDH release
# Protocol: (§1) In addition, APO-peptides and parent peptides are tested against a panel of cancer cell lines. Cell death is measured using the Cytotox (Promega) assay kit which measures the release of lactate dehydrogenase.
# (§2) PBL, peripheral blood lymphocytes; HUVEC, human umbilical vein endothelial cells; H460,non-small lung tumor; K562, chronic myelogenous leukemia; DoHH-2, B-cell cell lymphoma; P388, lymphocytic leukemia; P388ADR, lymphocytic leukemia, multidrug resistant; MCF-7, breast carcinoma; MCF-7ADR, breast carcinoma, multidrug resistant.
# [5] = tested on: DoHH-2, B-cell cell lymphoma; assay: as above; type: cell-based; conditions: LDH release
# Protocol: as §1, §2
# [6] = tested on: PBL, peripheral blood lymphocytes; assay: as above; type: cell-based; conditions: LDH release
# Protocol: as §1, §2
# [7] = tested on: K562, chronic myelogenous leukemia; assay: as above; type: cell-based; conditions: LDH release
# Protocol: as §1, §2
# [8] = tested on: HUVEC, human umbilical vein endothelial cells; assay: as above; type: cell-based; conditions: LDH release
# Protocol: as §1, §2
# [9] = tested on: H460, non-small lung tumor; assay: as above; type: cell-based; conditions: LDH release
# Protocol: as §1, §2
# [10] = tested on: P388ADR, lymphocytic leukemia, multidrug resistant; assay: as above; type: cell-based; conditions: LDH release
# Protocol: as §1, §2
# [11] = tested on: P388, lymphocytic leukemia; assay: as above; type: cell-based; conditions: LDH release
# Protocol: as §1, §2
# [12] = tested on: MCF-7ADR, breast carcinoma, multidrug resistant; assay: as above; type: cell-based; conditions: LDH release
# Protocol: as §1, §2
# S. marcescens = type: cell-based; conditions: for Peptide MIC values: agarose dilution
# S. epidermidis = type: cell-based; conditions: S. epidermidis strain SE002
# P. vulgaris = assay: Agarose dilution assay (MIC); type: cell-based
compound,measurement,setting,value
CC[C@H](C)[C@H](NC(=O)CNC(=O)[C@@H](NC(=O)[C@H](CCCCN)NC(=O)[C@H](CCCCN)NC(=O)[C@H](Cc1ccccc1)NC(=O)[C@H](CC(C)C)NC(=O)[C@H](CCCCN)NC(=O)[C@H](Cc1c[nH]c2ccccc12)NC(=O)[C@@H](N)CCCCN)[C@@H](C)CC)C(=O)NCC(=O)N[C@@H](C)C(=O)N[C@H](C(=O)N[C@@H](CC(C)C)C(=O)N[C@@H](CCCCN)C(=O)N[C@H](C(=O)N[C@@H](CC(C)C)C(=O)N[C@H](C(=O)N[C@H](C(=O)NCC(=O)N[C@@H](CC(C)C)C(=O)N1CCC[C@H]1C(=O)N[C@@H](C)C(=O)N[C@@H](CC(C)C)C(=O)N[C@@H](CCCCN)C(=O)N[C@@H](CC(C)C)C(=O)N[C@H](C(=O)N[C@@H](CCCCN)C(=O)O)[C@@H](C)O)[C@@H](C)O)[C@@H](C)O)C(C)C)C(C)C [MBI 28],% Lysis,[1],4.7%
ILKKWPWWPWRRK [MBI 11E3CN],MIC,H. influenzae,>128 µg/mL
same,MIC,P. aeruginosa; P. aeruginosa strain PA041,64 µg/mL
same,Peptide MIC + Piperacillin,[2]; A. calcoaceticus 3,8 µg/mL
same,Piperacillin MIC + Peptide,[2]; A. calcoaceticus 3,16 µg/mL
same,Peptide MIC Alone,[2]; A. calcoaceticus 3,32 µg/mL
same,Peptide MIC + Piperacillin,[2]; H. influenzae 1,64 µg/mL
same,Piperacillin MIC + Peptide,[2]; H. influenzae 1,8 µg/mL
same,Peptide MIC Alone,[2]; H. influenzae 1,>128 µg/mL
same,Peptide MIC + Piperacillin,[2]; H. influenzae 2,16 µg/mL
same,Piperacillin MIC + Peptide,[2]; H. influenzae 2,8 µg/mL
same,Peptide MIC Alone,[2]; H. influenzae 2,>128 µg/mL
same,Peptide MIC + Piperacillin,[2]; P. aeruginosa 7,32 µg/mL
same,Piperacillin MIC + Peptide,[2]; P. aeruginosa 7,64 µg/mL
same,Peptide MIC Alone,[2]; P. aeruginosa 7,64 µg/mL
same,Peptide MIC + Piperacillin,[2]; P. aeruginosa 23,1 µg/mL
same,Piperacillin MIC + Peptide,[2]; P. aeruginosa 23,32 µg/mL
same,Peptide MIC Alone,[2]; P. aeruginosa 23,64 µg/mL
same,Peptide MIC + Piperacillin,[2]; S. maltophilia 3,16 µg/mL
same,Piperacillin MIC + Peptide,[2]; S. maltophilia 3,16 µg/mL
same,Peptide MIC Alone,[2]; S. maltophilia 3,32 µg/mL
same,Peptide MIC + Piperacillin,[2]; S. maltophilia 4,16 µg/mL
same,Piperacillin MIC + Peptide,[2]; S. maltophilia 4,16 µg/mL
same,Peptide MIC Alone,[2]; S. maltophilia 4,32 µg/mL
same,Peptide MIC + Piperacillin,[2]; S. marcescens SB1,2 µg/mL
same,Piperacillin MIC + Peptide,[2]; S. marcescens SB1,16 µg/mL
same,Peptide MIC Alone,[2]; S. marcescens SB1,>128 µg/mL
same,FIC,[2]; A. calcoaceticus 3,0.75
same,FIC,[2]; H. influenzae 1,0.38
same,FIC,[2]; H. influenzae 2,0.31
same,FIC,[2]; P. aeruginosa 7,1.00
same,FIC,[2]; P. aeruginosa 23,0.27
same,FIC,[2]; S. maltophilia 3,0.75
same,FIC,[2]; S. maltophilia 4,0.75
same,FIC,[2]; S. marcescens SB1,0.26
same,MIC,S. maltophilia,32 µg/mL
same,MIC,A. calcoaceticus,16 µg/mL
same,MIC,E. cloacae,>128 µg/mL
same,MIC,E. faecium,2 µg/mL
same,% Survival,[3],70%
same,MIC,S. pyogenes,16 µg/mL
same,MIC,K. pneumoniae; K. pneumoniae strain KP002,32 µg/mL
same,Peptide MIC + Piperacillin,[4],2 µg/mL
same,Peptide MIC Alone,[4]; Piperacillin section,4 µg/mL
same,FIC,[4]; peptide + Piperacillin,0.51
same,MIC,E. faecalis; E. faecalis strain EFS004,8 µg/mL
same,MIC,S. pneumoniae; S. pneumoniae strain SBSPN2,>128 µg/mL
same,MIC,S. pneumoniae; S. pneumoniae strain SPN044,>128 µg/mL
same,MIC,P. mirabilis,>128 µg/mL
same,MIC,S. aureus; S. aureus strain SA010,2 µg/mL
same,Peptide MIC + Piperacillin,bacterial isolates; H. influenzae 1,4 µg/mL
same,Piperacillin MIC + Peptide,bacterial isolates; H. influenzae 1,32 µg/mL
same,Peptide MIC Alone,"bacterial isolates; H. influenzae 1, Piperacillin section",>128 µg/mL
same,Peptide MIC + Piperacillin,bacterial isolates; H. influenzae 2,16 µg/mL
same,Piperacillin MIC + Peptide,bacterial isolates; H. influenzae 2,8 µg/mL
same,Peptide MIC Alone,"bacterial isolates; H. influenzae 2, Piperacillin section",>128 µg/mL
same,Peptide MIC + Piperacillin,bacterial isolates; P. aeruginosa 23,1 µg/mL
same,Piperacillin MIC + Peptide,bacterial isolates; P. aeruginosa 23,32 µg/mL
same,Peptide MIC Alone,"bacterial isolates; P. aeruginosa 23, Piperacillin section",64 µg/mL
same,Peptide MIC + Piperacillin,bacterial isolates; P. aeruginosa 32,8 µg/mL
same,Piperacillin MIC + Peptide,bacterial isolates; P. aeruginosa 32,32 µg/mL
same,Peptide MIC Alone,"bacterial isolates; P. aeruginosa 32, Piperacillin section",64 µg/mL
same,Peptide MIC + Piperacillin,bacterial isolates; S. aureus 19 MRSA,1 µg/mL
same,Piperacillin MIC + Peptide,bacterial isolates; S. aureus 19 MRSA,64 µg/mL
same,Peptide MIC Alone,"bacterial isolates; S. aureus 19 MRSA, Piperacillin section",4 µg/mL
same,Peptide MIC + Piperacillin,bacterial isolates; S. maltophilia 11,64 µg/mL
same,Piperacillin MIC + Peptide,bacterial isolates; S. maltophilia 11,2 µg/mL
same,Peptide MIC Alone,"bacterial isolates; S. maltophilia 11, Piperacillin section",128 µg/mL
same,Peptide MIC + Piperacillin,bacterial isolates; S. marcescens SB1,2 µg/mL
same,Piperacillin MIC + Peptide,bacterial isolates; S. marcescens SB1,16 µg/mL
same,Peptide MIC Alone,"bacterial isolates; S. marcescens SB1, Piperacillin section",>128 µg/mL
same,FIC,"bacterial isolates; peptide + Piperacillin, H. influenzae 1",0.52
same,FIC,"bacterial isolates; peptide + Piperacillin, H. influenzae 2",0.31
same,FIC,"bacterial isolates; peptide + Piperacillin, P. aeruginosa 23",0.27
same,FIC,"bacterial isolates; peptide + Piperacillin, P. aeruginosa 32",0.63
same,FIC,"bacterial isolates; peptide + Piperacillin, S. aureus 19 MRSA",0.50
same,FIC,"bacterial isolates; peptide + Piperacillin, S. maltophilia 11",0.51
same,FIC,"bacterial isolates; peptide + Piperacillin, S. marcescens SB1",0.26
same,MIC,E. coli; E. coli strain ECO001,4 µg/mL
same,"LC50 ± S.E., MCF-7","MCF-7, breast carcinoma",5.6 ± 2 µg/mL
same,"LC50 ± S.E., DoHH-2",[5],3.6 µg/mL
same,"LC50 ± S.E., PBL",[6],22 ± 11 µg/mL
same,"LC50 ± S.E., K562",[7],9 µg/mL
same,"LC50 ± S.E., HUVEC",[8],117 ± 7 µg/mL
same,"LC50 ± S.E., H460",[9],18 µg/mL
same,"LC50 ± S.E., P388 ADR",[10],7.9 ± 3 µg/mL
same,"LC50 ± S.E., P388",[11],13.9 ± 3 µg/mL
same,"LC50 ± S.E., MCF-7 ADR",[12],5.3 ± 1 µg/mL
same,MIC,S. marcescens; S. marcescens strain SMS004,>128 µg/mL
ILKKYPYYPYRRK [MBI 11A3CN],MIC,H. influenzae,>128 µg/mL
same,MIC,P. aeruginosa; P. aeruginosa strain PA002,>128 µg/mL
same,Peptide MIC values,P. aeruginosa; P. aeruginosa ATCC 27853,>128 µg/mL
same,Peptide MIC values,P. aeruginosa; P. aeruginosa NCTC 10662,>128 µg/mL
same,MIC,S. maltophilia,>128 µg/mL
same,MIC,A. calcoaceticus,>128 µg/mL
same,MIC,E. cloacae,>128 µg/mL
same,MIC,E. faecium,64 µg/mL
same,Peptide MIC values,E. faecium; agarose dilution,>128 µg/mL
same,MIC,S. epidermidis,128 µg/mL
same,MIC,K. pneumoniae; K. pneumoniae strain KP001,>128 µg/mL
same,MIC,E. faecalis; E. faecalis strain EFS002,>128 µg/mL
same,MIC,S. pneumoniae; S. pneumoniae strain SBSPN3,>128 µg/mL
same,Peptide MIC values,S. pneumoniae; S. pneumoniae 406LE8,>128 µg/mL
same,Peptide MIC values,S. pneumoniae; S. pneumoniae 60120,>128 µg/mL
same,Peptide MIC values,S. pneumoniae; S. pneumoniae ATCC 49619,>128 µg/mL
same,MIC,S. aureus; S. aureus strain SA004,32 µg/mL
same,Peptide MIC values,S. aureus; S. aureus ATCC 29213,16 µg/mL
same,Peptide MIC values,S. aureus; S. aureus MRSA9,128 µg/mL
same,Peptide MIC values,S. aureus; S. aureus MRSA13,>128 µg/mL
same,Peptide MIC values,S. aureus; S. aureus MRSA17,>128 µg/mL
same,Peptide MIC values,S. aureus; S. aureus SA206,>128 µg/mL
same,Mupirocin MIC + Peptide,bacterial isolates; E. coli SBECO1,30 µg/mL
same,Peptide MIC + Mupirocin,bacterial isolates; E. coli SBECO1,8 µg/mL
same,Peptide MIC Alone,"bacterial isolates; E. coli SBECO1, Mupirocin section",64 µg/mL
same,FIC,"bacterial isolates; peptide + Mupirocin, E. coli SBECO1",0.43
same,MIC,P. vulgaris; P. vulgaris strain SBPV1,>128 µg/mL
same,Peptide MIC values,"P. vulgaris; agarose dilution, P. vulgaris ATCC 13315",>128 µg/mL
same,MIC,E. coli; E. coli strain ECO002,>128 µg/mL
same,Peptide MIC values,E. coli; E. coli ATCC 25922,>128 µg/mL
same,Peptide MIC values,E. coli; E. coli ESS,>128 µg/mL
same,Peptide MIC values,E. coli; E. coli NCTC 10418,64 µg/mL
same,"LC50 ± S.E., DoHH-2",[5],>500 µg/mL
same,"LC50 ± S.E., PBL",[6],>500 µg/mL
same,"LC50 ± S.E., K562",[7],>500 µg/mL
same,"LC50 ± S.E., HUVEC",[8],>500 µg/mL
same,"LC50 ± S.E., H460",[9],>500 µg/mL
same,"LC50 ± S.E., P388 ADR",[10],>300 µg/mL
same,"LC50 ± S.E., P388",[11],>300 µg/mL
same,MIC,S. marcescens; S. marcescens strain SBSM2,>128 µg/mL
same,Peptide MIC values,S. marcescens; S. marcescens SM76,>128 µg/mL
same,Peptide MIC values,S. marcescens; S. marcescens SM82,>128 µg/mL
